# Molecular target: Tyrosine-protein kinase JAK1 (Homo sapiens) (UniProt P23458)
# Sequence (P23458 whole entry): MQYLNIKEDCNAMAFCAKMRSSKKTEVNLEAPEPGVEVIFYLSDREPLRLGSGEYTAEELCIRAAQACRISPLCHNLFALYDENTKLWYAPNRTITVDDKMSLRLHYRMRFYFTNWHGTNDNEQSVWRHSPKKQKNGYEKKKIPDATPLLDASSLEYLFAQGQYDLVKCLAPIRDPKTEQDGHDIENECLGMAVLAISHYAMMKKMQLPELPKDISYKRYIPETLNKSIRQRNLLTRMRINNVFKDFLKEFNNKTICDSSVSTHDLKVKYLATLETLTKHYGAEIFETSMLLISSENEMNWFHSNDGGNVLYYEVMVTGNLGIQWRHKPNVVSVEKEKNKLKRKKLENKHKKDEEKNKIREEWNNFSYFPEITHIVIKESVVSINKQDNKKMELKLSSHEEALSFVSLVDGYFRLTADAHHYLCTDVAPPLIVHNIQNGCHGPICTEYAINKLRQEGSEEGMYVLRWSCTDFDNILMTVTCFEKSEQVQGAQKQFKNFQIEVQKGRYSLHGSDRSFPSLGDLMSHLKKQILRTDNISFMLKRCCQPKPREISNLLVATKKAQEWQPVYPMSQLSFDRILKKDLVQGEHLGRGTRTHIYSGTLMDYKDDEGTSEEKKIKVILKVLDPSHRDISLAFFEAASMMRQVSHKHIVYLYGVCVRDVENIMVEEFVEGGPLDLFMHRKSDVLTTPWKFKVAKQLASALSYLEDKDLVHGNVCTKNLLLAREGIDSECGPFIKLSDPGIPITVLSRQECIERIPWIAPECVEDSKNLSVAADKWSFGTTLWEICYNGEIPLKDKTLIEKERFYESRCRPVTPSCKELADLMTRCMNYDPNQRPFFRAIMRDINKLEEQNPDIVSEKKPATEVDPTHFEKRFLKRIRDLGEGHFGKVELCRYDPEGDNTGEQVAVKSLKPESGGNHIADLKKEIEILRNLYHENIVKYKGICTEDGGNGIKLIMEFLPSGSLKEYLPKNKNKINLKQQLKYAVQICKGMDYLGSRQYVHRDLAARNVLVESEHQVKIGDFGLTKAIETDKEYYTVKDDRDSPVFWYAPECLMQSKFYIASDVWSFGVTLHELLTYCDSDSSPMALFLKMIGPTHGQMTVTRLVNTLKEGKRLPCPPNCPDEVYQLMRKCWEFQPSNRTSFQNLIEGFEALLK
row,SMILES,ΔTm [°C]
1,CN1CCc2[nH]c(=S)c(C#N)c(-c3cccs3)c2C1,-0.1
2,CCCCc1c(-c2ccc(O)cc2)[nH]c2nccnc12 [ALOISINE A],0.5
3,CC(C)[C@H](CO)Nc1nc(Nc2cc(N)cc(Cl)c2)c2ncn(C(C)C)c2n1 [AMINOPURVALANOL],0.1
4,Cc1[nH]c(/C=C2\C(=O)Nc3ccc(S(=O)(=O)N(C)c4cccc(Cl)c4)cc32)c(C)c1C(=O)N1CCN(C)CC1,3.4

# Molecular target: Serine/threonine-protein kinase 26 (Homo sapiens) (UniProt Q9P289)
row,SMILES,ΔTm [°C]
1,CN1CCc2[nH]c(=S)c(C#N)c(-c3cccs3)c2C1,1
2,CCCCc1c(-c2ccc(O)cc2)[nH]c2nccnc12 [ALOISINE A],1.1
3,CC(C)[C@H](CO)Nc1nc(Nc2cc(N)cc(Cl)c2)c2ncn(C(C)C)c2n1 [AMINOPURVALANOL],4.3
4,Cc1[nH]c(/C=C2\C(=O)Nc3ccc(S(=O)(=O)N(C)c4cccc(Cl)c4)cc32)c(C)c1C(=O)N1CCN(C)CC1,5

# Molecular target: cAMP-dependent protein kinase catalytic subunit alpha (Homo sapiens) (UniProt P17612)
row,SMILES,ΔTm [°C]
1,CN1CCc2[nH]c(=S)c(C#N)c(-c3cccs3)c2C1,14.1
2,CCCCc1c(-c2ccc(O)cc2)[nH]c2nccnc12 [ALOISINE A],3.8
3,CC(C)[C@H](CO)Nc1nc(Nc2cc(N)cc(Cl)c2)c2ncn(C(C)C)c2n1 [AMINOPURVALANOL],6.5
4,Cc1[nH]c(/C=C2\C(=O)Nc3ccc(S(=O)(=O)N(C)c4cccc(Cl)c4)cc32)c(C)c1C(=O)N1CCN(C)CC1,3.1

# Molecular target: Serine/threonine-protein kinase PAK 6 (Homo sapiens) (UniProt Q9NQU5)
row,SMILES,ΔTm [°C]
1,CN1CCc2[nH]c(=S)c(C#N)c(-c3cccs3)c2C1,0
2,CCCCc1c(-c2ccc(O)cc2)[nH]c2nccnc12 [ALOISINE A],0.5
3,CC(C)[C@H](CO)Nc1nc(Nc2cc(N)cc(Cl)c2)c2ncn(C(C)C)c2n1 [AMINOPURVALANOL],0.1
4,Cc1[nH]c(/C=C2\C(=O)Nc3ccc(S(=O)(=O)N(C)c4cccc(Cl)c4)cc32)c(C)c1C(=O)N1CCN(C)CC1,2

# Molecular target: T1, Mitogen-activated protein kinase kinase kinase 5 (Homo sapiens) (UniProt Q99683)
# T1 sequence (whole entry): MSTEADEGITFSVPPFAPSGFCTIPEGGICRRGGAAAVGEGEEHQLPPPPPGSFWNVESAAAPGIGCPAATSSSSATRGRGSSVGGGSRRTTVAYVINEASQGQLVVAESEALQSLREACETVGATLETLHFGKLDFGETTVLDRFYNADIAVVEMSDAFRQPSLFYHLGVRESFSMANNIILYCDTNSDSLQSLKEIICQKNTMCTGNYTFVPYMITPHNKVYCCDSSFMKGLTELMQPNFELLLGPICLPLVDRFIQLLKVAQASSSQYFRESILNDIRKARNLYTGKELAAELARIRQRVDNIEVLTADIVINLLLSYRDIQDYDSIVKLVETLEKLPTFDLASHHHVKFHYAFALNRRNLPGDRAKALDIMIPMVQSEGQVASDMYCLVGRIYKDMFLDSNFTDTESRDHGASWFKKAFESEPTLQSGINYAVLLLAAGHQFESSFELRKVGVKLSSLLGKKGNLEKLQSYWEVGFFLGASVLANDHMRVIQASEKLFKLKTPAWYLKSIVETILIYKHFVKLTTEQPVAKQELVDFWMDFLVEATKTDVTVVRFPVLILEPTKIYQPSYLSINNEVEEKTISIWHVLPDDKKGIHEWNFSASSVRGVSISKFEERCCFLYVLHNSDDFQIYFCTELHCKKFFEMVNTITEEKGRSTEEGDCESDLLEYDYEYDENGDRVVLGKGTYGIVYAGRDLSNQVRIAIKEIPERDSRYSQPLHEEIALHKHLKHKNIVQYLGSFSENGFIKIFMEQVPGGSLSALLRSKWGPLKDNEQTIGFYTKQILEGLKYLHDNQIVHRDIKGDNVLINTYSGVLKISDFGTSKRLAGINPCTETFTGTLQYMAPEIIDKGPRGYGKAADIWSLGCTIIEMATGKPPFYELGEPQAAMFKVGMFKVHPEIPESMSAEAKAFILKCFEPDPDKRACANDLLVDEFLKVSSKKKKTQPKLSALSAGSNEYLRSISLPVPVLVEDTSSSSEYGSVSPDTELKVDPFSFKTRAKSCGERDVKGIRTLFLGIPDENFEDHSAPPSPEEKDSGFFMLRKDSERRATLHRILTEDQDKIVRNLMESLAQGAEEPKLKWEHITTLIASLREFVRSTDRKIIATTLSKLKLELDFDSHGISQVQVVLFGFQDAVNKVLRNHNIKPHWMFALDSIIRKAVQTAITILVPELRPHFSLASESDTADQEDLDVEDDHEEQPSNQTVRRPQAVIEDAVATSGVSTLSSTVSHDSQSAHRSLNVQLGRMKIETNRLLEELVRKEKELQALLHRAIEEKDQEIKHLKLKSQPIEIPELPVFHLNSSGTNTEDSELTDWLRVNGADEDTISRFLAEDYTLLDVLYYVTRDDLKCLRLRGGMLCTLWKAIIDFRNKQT
row,SMILES,ΔTm [°C]
1,CN1CCc2[nH]c(=S)c(C#N)c(-c3cccs3)c2C1,4.7
2,CCCCc1c(-c2ccc(O)cc2)[nH]c2nccnc12 [ALOISINE A],0.4
3,CC(C)[C@H](CO)Nc1nc(Nc2cc(N)cc(Cl)c2)c2ncn(C(C)C)c2n1 [AMINOPURVALANOL],2.4
4,Cc1[nH]c(/C=C2\C(=O)Nc3ccc(S(=O)(=O)N(C)c4cccc(Cl)c4)cc32)c(C)c1C(=O)N1CCN(C)CC1,-0.7

# Molecular target: Casein kinase I isoform gamma-3 (Homo sapiens) (UniProt Q9Y6M4)
# Sequence (Q9Y6M4 whole entry, looked up, canonical isoform): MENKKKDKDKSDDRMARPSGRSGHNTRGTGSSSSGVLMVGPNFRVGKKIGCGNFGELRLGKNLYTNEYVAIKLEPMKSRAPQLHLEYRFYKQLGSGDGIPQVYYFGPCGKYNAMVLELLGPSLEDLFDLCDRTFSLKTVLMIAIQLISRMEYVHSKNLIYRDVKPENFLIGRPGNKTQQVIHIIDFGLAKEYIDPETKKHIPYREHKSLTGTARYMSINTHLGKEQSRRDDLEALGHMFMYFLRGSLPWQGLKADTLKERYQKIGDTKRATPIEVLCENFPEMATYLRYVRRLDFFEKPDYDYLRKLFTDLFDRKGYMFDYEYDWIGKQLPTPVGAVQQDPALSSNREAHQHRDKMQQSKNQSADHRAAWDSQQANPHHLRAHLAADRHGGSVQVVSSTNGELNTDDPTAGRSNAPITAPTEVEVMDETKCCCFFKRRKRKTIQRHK
row,SMILES,ΔTm [°C]
1,CN1CCc2[nH]c(=S)c(C#N)c(-c3cccs3)c2C1,0.2
2,CCCCc1c(-c2ccc(O)cc2)[nH]c2nccnc12 [ALOISINE A],2.5
3,CC(C)[C@H](CO)Nc1nc(Nc2cc(N)cc(Cl)c2)c2ncn(C(C)C)c2n1 [AMINOPURVALANOL],1.1
4,Cc1[nH]c(/C=C2\C(=O)Nc3ccc(S(=O)(=O)N(C)c4cccc(Cl)c4)cc32)c(C)c1C(=O)N1CCN(C)CC1,1.1

# Molecular target: Serine/threonine-protein kinase 38 (Homo sapiens) (UniProt Q15208)
# Sequence (Q15208 2-465 limits assumed): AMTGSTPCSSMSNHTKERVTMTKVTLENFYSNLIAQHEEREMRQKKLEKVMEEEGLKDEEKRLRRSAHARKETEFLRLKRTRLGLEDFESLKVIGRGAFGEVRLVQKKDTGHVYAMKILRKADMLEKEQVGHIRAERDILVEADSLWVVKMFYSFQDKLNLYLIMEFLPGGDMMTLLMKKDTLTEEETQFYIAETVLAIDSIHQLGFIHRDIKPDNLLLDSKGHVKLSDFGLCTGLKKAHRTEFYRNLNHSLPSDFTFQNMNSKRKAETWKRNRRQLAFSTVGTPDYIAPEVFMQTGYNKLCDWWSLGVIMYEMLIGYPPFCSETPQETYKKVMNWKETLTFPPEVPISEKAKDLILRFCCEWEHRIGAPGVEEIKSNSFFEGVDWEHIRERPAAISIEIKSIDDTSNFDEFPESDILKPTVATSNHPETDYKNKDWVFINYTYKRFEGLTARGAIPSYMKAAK
row,SMILES,ΔTm [°C]
1,CN1CCc2[nH]c(=S)c(C#N)c(-c3cccs3)c2C1,0.5
2,CCCCc1c(-c2ccc(O)cc2)[nH]c2nccnc12 [ALOISINE A],4
3,CC(C)[C@H](CO)Nc1nc(Nc2cc(N)cc(Cl)c2)c2ncn(C(C)C)c2n1 [AMINOPURVALANOL],0.6
4,Cc1[nH]c(/C=C2\C(=O)Nc3ccc(S(=O)(=O)N(C)c4cccc(Cl)c4)cc32)c(C)c1C(=O)N1CCN(C)CC1,4.2

# Molecular target: Serine/threonine-protein kinase pim-2 (Homo sapiens, UniProt Q9P1W9)
# Sequence (Q9P1W9 whole entry, looked up): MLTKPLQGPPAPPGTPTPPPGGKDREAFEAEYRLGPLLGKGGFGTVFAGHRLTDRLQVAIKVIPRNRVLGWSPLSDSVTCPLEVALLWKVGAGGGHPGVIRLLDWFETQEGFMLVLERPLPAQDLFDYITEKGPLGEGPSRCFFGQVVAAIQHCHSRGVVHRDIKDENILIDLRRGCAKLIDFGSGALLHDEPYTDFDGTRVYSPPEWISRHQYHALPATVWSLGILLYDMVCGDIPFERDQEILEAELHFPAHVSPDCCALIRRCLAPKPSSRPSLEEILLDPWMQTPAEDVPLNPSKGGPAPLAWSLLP
row,SMILES,ΔTm [°C]
1,CN1CCc2[nH]c(=S)c(C#N)c(-c3cccs3)c2C1,-0.3
2,CCCCc1c(-c2ccc(O)cc2)[nH]c2nccnc12 [ALOISINE A],4.5
3,CC(C)[C@H](CO)Nc1nc(Nc2cc(N)cc(Cl)c2)c2ncn(C(C)C)c2n1 [AMINOPURVALANOL],-0.1
4,Cc1[nH]c(/C=C2\C(=O)Nc3ccc(S(=O)(=O)N(C)c4cccc(Cl)c4)cc32)c(C)c1C(=O)N1CCN(C)CC1,1

# Molecular target: Serine/threonine-protein kinase 10 (Homo sapiens) (UniProt O94804)
# Sequence (O94804 whole entry, looked up): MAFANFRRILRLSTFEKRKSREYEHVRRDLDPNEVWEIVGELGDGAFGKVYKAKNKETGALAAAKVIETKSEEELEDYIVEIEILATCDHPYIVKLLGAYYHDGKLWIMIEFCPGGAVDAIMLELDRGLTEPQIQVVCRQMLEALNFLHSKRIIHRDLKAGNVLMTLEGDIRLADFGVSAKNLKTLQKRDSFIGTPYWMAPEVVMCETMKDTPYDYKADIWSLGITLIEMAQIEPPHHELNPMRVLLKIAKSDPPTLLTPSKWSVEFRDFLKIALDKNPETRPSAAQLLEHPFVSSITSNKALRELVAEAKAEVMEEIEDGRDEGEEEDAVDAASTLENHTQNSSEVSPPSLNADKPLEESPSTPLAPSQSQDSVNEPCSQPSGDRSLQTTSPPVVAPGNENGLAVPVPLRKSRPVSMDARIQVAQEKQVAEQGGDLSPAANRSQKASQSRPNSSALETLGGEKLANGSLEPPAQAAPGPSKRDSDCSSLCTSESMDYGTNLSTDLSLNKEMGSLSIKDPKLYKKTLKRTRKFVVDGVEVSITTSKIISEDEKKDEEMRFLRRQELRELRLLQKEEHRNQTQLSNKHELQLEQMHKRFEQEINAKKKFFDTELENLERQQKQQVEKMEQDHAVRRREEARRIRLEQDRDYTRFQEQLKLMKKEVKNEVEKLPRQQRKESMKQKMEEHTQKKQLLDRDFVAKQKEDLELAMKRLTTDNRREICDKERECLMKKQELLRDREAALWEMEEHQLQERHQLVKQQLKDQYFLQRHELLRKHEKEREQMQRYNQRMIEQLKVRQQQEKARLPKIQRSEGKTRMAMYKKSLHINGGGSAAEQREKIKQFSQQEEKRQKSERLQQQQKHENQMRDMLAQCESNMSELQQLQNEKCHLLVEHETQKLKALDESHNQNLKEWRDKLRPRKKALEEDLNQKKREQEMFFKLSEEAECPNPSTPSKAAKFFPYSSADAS
row,SMILES,ΔTm [°C]
1,CN1CCc2[nH]c(=S)c(C#N)c(-c3cccs3)c2C1,7.2
2,CCCCc1c(-c2ccc(O)cc2)[nH]c2nccnc12 [ALOISINE A],5
3,CC(C)[C@H](CO)Nc1nc(Nc2cc(N)cc(Cl)c2)c2ncn(C(C)C)c2n1 [AMINOPURVALANOL],2.7
4,Cc1[nH]c(/C=C2\C(=O)Nc3ccc(S(=O)(=O)N(C)c4cccc(Cl)c4)cc32)c(C)c1C(=O)N1CCN(C)CC1,1.8

# Molecular target: 5'-AMP-activated protein kinase catalytic subunit alpha-2 (Homo sapiens) (UniProt P54646)
# Sequence (P54646 whole entry, looked up): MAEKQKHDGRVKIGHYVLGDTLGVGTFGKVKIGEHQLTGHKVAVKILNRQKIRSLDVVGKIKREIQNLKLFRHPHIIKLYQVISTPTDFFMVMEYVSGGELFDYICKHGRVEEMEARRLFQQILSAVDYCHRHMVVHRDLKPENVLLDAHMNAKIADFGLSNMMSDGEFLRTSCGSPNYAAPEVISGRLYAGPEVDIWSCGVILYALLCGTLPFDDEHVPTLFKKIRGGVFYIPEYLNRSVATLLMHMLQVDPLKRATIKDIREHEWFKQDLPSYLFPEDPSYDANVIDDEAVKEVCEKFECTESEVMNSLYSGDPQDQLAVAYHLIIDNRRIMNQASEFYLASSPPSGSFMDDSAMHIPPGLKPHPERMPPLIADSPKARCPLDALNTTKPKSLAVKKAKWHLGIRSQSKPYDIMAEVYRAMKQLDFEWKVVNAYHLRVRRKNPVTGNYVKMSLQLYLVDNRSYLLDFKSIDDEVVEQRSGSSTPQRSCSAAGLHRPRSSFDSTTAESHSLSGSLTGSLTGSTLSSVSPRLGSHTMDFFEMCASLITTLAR
row,SMILES,ΔTm [°C]
1,CN1CCc2[nH]c(=S)c(C#N)c(-c3cccs3)c2C1,0.4
2,CCCCc1c(-c2ccc(O)cc2)[nH]c2nccnc12 [ALOISINE A],2.2
3,CC(C)[C@H](CO)Nc1nc(Nc2cc(N)cc(Cl)c2)c2ncn(C(C)C)c2n1 [AMINOPURVALANOL],0.3
4,Cc1[nH]c(/C=C2\C(=O)Nc3ccc(S(=O)(=O)N(C)c4cccc(Cl)c4)cc32)c(C)c1C(=O)N1CCN(C)CC1,4

# Molecular target: Calcium/calmodulin-dependent protein kinase kinase 2 (Homo sapiens, UniProt Q96RR4)
# Sequence (Q96RR4 2-588 limits assumed): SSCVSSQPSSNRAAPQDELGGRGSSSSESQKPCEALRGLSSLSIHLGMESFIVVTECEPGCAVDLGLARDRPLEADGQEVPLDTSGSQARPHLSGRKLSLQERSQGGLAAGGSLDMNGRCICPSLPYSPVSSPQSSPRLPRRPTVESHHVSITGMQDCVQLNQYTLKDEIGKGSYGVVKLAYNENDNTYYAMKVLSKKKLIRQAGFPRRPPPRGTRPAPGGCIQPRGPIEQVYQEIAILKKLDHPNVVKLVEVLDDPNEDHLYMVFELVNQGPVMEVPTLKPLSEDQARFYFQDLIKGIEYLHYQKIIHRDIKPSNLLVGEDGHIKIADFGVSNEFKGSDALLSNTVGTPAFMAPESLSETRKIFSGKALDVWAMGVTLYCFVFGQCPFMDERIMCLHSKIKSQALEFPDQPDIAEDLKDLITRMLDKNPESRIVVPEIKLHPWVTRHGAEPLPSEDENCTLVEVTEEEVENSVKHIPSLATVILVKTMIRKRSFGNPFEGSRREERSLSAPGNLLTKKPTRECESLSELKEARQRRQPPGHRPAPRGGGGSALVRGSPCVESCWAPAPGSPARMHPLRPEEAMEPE
row,SMILES,ΔTm [°C]
1,CN1CCc2[nH]c(=S)c(C#N)c(-c3cccs3)c2C1,3.8
2,CCCCc1c(-c2ccc(O)cc2)[nH]c2nccnc12 [ALOISINE A],1.8
3,CC(C)[C@H](CO)Nc1nc(Nc2cc(N)cc(Cl)c2)c2ncn(C(C)C)c2n1 [AMINOPURVALANOL],3.3
4,Cc1[nH]c(/C=C2\C(=O)Nc3ccc(S(=O)(=O)N(C)c4cccc(Cl)c4)cc32)c(C)c1C(=O)N1CCN(C)CC1,1.2

# Molecular target: Cyclin-dependent kinase 16 (Homo sapiens) (UniProt Q00536)
# Sequence (Q00536 whole entry): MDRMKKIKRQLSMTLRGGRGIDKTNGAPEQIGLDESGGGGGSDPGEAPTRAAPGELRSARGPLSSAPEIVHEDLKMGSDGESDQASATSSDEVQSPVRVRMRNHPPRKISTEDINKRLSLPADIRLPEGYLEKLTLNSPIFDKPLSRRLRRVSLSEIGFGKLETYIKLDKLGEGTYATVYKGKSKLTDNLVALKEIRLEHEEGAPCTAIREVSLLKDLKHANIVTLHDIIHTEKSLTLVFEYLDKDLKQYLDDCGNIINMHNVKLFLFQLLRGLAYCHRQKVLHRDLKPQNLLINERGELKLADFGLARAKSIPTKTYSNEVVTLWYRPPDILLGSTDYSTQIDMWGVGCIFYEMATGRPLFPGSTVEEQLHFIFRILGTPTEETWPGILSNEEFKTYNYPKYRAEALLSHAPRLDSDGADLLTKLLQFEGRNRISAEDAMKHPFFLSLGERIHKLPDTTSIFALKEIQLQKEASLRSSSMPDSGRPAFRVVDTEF
row,SMILES,ΔTm [°C]
1,CN1CCc2[nH]c(=S)c(C#N)c(-c3cccs3)c2C1,4.1
2,CCCCc1c(-c2ccc(O)cc2)[nH]c2nccnc12 [ALOISINE A],-0.5
3,CC(C)[C@H](CO)Nc1nc(Nc2cc(N)cc(Cl)c2)c2ncn(C(C)C)c2n1 [AMINOPURVALANOL],8.1
4,Cc1[nH]c(/C=C2\C(=O)Nc3ccc(S(=O)(=O)N(C)c4cccc(Cl)c4)cc32)c(C)c1C(=O)N1CCN(C)CC1,-0.6

# Molecular target: T2, Serine/threonine-protein kinase 17A (Homo sapiens) (UniProt Q9UEE5)
# T2 sequence (whole entry): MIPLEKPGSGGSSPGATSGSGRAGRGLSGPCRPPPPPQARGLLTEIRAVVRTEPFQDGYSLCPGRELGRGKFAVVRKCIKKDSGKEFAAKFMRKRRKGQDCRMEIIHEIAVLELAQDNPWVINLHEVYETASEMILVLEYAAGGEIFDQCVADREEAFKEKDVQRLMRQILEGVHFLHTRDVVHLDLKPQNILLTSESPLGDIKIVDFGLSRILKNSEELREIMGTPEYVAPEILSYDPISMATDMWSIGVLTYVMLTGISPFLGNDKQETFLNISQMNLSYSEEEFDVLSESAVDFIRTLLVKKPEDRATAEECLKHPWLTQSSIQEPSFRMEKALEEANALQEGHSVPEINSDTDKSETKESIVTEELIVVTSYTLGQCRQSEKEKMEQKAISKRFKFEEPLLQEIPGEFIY
row,SMILES,ΔTm [°C]
1,CN1CCc2[nH]c(=S)c(C#N)c(-c3cccs3)c2C1,0.9
2,CCCCc1c(-c2ccc(O)cc2)[nH]c2nccnc12 [ALOISINE A],2.9
3,CC(C)[C@H](CO)Nc1nc(Nc2cc(N)cc(Cl)c2)c2ncn(C(C)C)c2n1 [AMINOPURVALANOL],1.6
4,Cc1[nH]c(/C=C2\C(=O)Nc3ccc(S(=O)(=O)N(C)c4cccc(Cl)c4)cc32)c(C)c1C(=O)N1CCN(C)CC1,3.3

# Molecular target: Serine/threonine-protein kinase Nek6 (Homo sapiens) (UniProt Q9HC98)
row,SMILES,ΔTm [°C]
1,CN1CCc2[nH]c(=S)c(C#N)c(-c3cccs3)c2C1,0
2,CCCCc1c(-c2ccc(O)cc2)[nH]c2nccnc12 [ALOISINE A],2.9
3,CC(C)[C@H](CO)Nc1nc(Nc2cc(N)cc(Cl)c2)c2ncn(C(C)C)c2n1 [AMINOPURVALANOL],0
4,Cc1[nH]c(/C=C2\C(=O)Nc3ccc(S(=O)(=O)N(C)c4cccc(Cl)c4)cc32)c(C)c1C(=O)N1CCN(C)CC1,0.4

# — ChEMBL document CHEMBL1145498, “A systematic interaction map of validated kinase inhibitors with Ser/Thr kinases” (Proc Natl Acad Sci U S A, 2007)
